From a melting point compilation (Tetko et al.)

conditions: a range is the spread between reports

Row | Structure (SMILES) | melting point
1 | O=[N+]([O-])c1cccc(S(=O)(=O)Cl)c1 | 60.9 to 61 °C
2 | O=Cc1ccccc1 | -56.9 to -55.6 °C
3 | O=C1C=C(Cl)C(=O)C=C1Cl | 160 to 162 °C
4 | COc1cc(Cl)ccc1O | 16.5 to 17 °C
5 | Oc1ccc2[nH]ccc2c1 | 108 to 109 °C
6 | N#Cc1ccccc1N | 47 to 51 °C
7 | SCc1ccccc1 | -30 to -29 °C
8 | c1ccc(-c2cc3ccccc3[nH]2)cc1 | 190 °C
9 | Nc1cc(C(=O)O)ccc1Cl | 214 to 216 °C
10 | C=CBr | -139 to -138 °C
11 | Cc1cc([N+](=O)[O-])ccc1Cl | 42.5 to 43 °C
12 | O=C1CCCCN1 | 37 to 39.5 °C
13 | O=C1CCO1 | -34 to -33.4 °C
14 | CCOC(=O)Cc1ccccc1 | -29.4 to -29 °C
15 | O=C(O)c1ccccc1Cl | 139 to 142 °C
16 | Brc1sc(Br)c(Br)c1Br | 115 to 118 °C
17 | O=C(c1ccccc1)c1ccccn1 | 42 to 43 °C
18 | O=Cc1cccc(I)c1 | 56 to 58 °C
19 | NCC(CC(=O)O)c1ccc(Cl)cc1 (stereo unspecified) | 207 to 208 °C
20 | c1ccc2sccc2c1 | 30 to 32 °C
21 | O=C(O)c1ccc([N+](=O)[O-])cc1[N+](=O)[O-] | 181 to 182 °C
22 | O=C1C(=O)c2ccccc2-c2ccccc21 | 206 to 210 °C
23 | CN[C@@H](C)[C@H](O)c1ccccc1 | 34 to 36 °C
24 | Nc1cccc([N+](=O)[O-])c1 | 112 to 114 °C
25 | O=Nc1ccccc1 | 65 to 68.5 °C
26 | CN(C)c1ccc(N(C)C)cc1 | 50 to 51 °C
27 | CC(C)C#N | -72 to -71.5 °C

Further lines, results first:

Row | melting point | Structure (SMILES)
28 | 281 to 282 °C | CC12CCC3c4ccc(O)cc4CCC3C1CC(O)C2O (stereo unspecified)
29 | 131 to 134 °C | O=C(O)CCCCCCCCC(=O)O
30 | 94 to 96.5 °C | Cc1ccc(C(=O)c2ccc(C)cc2)cc1
31 | 67 to 69.5 °C | C[Si](c1ccccc1)(c1ccccc1)c1ccccc1
32 | 199 to 201 °C | CC(C)(C)c1ccc2oc(-c3ccc(-c4nc5cc(C(C)(C)C)ccc5o4)s3)nc2c1
33 | 155 to 157 °C | CC(=O)Nc1ccc(Cl)cc1F
34 | -115 °C | CCC(CC)C(C)C
35 | 149 to 153 °C | CC(=O)N[C@@H](Cc1ccc(O)cc1)C(=O)O
36 | 108 to 110 °C | CCN1CCNC(=O)C1=O
37 | 266 to 270 °C | c1ccc2c(c1)ccc1cc3c(ccc4ccccc43)cc12
38 | -116 to -115 °C | CCCCOC
39 | -3 to 0.3 °C | CCCCCCCCCCCCI
40 | 128 °C | CCCNC(=O)NS(=O)(=O)c1ccc(Cl)cc1
41 | -119 °C | CCC(CC)CC
42 | -106 °C | CCSC
43 | 58 to 61 °C | Cc1cc2ccccc2[nH]1
44 | -109 to -105 °C | CCCCCC(C)C
45 | 48.5 to 49 °C | CC(C)(C)C1CCC(=O)CC1
46 | 173 to 178 °C | CC12CCC3c4ccc(O)cc4CCC3C1CCC2O (stereo unspecified)
47 | 169 to 170 °C | O=C1CSC(=S)N1

Row | melting point | Structure (SMILES)
48 | 69 to 70 °C | Cc1c(Br)cc(Br)cc1Br
49 | -165 to -162 °C | C=CCCC
50 | 135 to 136 °C | O=Cc1ccc(O)cc1O
51 | 81.5 to 82 °C | OC(COc1ccccc1)COc1ccccc1
52 | 32 to 36 °C | CC(C)(O)c1ccccc1
53 | 9.5 to 10 °C | Brc1ccccc1I
54 | 77.5 to 78 °C | CCCCCCCCCCCCCC(=O)CCCCCCCCCCCCC
55 | 29 to 33 °C | CC(=O)CCC(=O)O
56 | 11 to 11.2 °C | Cc1cccc(C)c1I
57 | 9 to 10 °C | O=[N+]([O-])c1ccc(F)cc1F
58 | 117 to 118 °C | COc1ccc([N+](=O)[O-])cc1N
59 | 91.5 to 94 °C | Nc1cnc2ccccc2c1
60 | -52 to -50.9 °C | O=C1CCC1
61 | 62 to 64 °C | OCc1ccccc1CO
62 | 114 to 115 °C | c1ccc(-c2nc3ccccc3s2)cc1
63 | 218 °C | Oc1cc(O)cc(O)c1
64 | -106 to -105 °C | C/C=C/C
65 | 95 to 96 °C | COC(=O)c1ccc([N+](=O)[O-])cc1
66 | 156 to 158 °C | O=C(O)c1ccc2ccccc2n1
